Tests used:
[1] = target: T1, human β3 adrenergic receptor (Homo sapiens, UniProt P13945); assay: Test Example 1-B: human β3 adrenergic receptor agonist activity (cAMP-Screen kit, transfected CHO cells, 96-well); type: cell-based; conditions: for Emax: CHO, read-out: β3 receptor I.A.; for EC50: Table 2, Test Example 1-B
T1 construct: the full length human β3 gene is obtained from a human genomic library; expressed in transfected cells; host or cells: CHO (Chinese Hamster Ovary) cells, pcDNA3, geneticin selection
Protocol: Measurement of Human β3 Adrenergic Receptor Agonist Activity
(§1) The measurement of human β3 adrenergic receptor agonist activity is carried out using CHO (Chinese Hamster Ovary) cells transfected with pcDNA3 (manufactured by Invitrogen, Inc.) to which human β3 gene has been inserted. […] This human β3 cDNA fragment is used as a probe, and the full length human β3 gene is obtained from a human genomic library (manufactured by Clontech Laboratories, Inc.). The above cells are cultured in Ham's F-12 medium containing 10% fetal bovine serum and 400 μg/ml geneticin (manufactured by Invitrogen, Inc.). These cells are seeded on a 96-well plate to a concentration of 2×10^4 cells/well, and after being cultured for about 20 hours, the cells are left to stand in 80 μL of serum-free Ham's F-12 medium for 15 minutes. A test compound is initially dissolved in DMSO, and then is diluted stepwise with Ham's F-12 containing 100 mmol/L HEPES and 1 mmol/L isobutylmethylxanthine. 20 μL of the dilution is added to the cells. After the cells are cultured for 30 minutes, the medium is removed. 0.3. ml of the Assay/lysis Buffer included in cAMP-Screen kit (manufactured by Applied Biosystems, Inc.) is added to the cells, and the cells are incubated at 37° C. for 30 minutes. The resulting cell lysate is subjected to quantification of cAMP with the cAMP-Screen kit.

[2] = target: T2, human β1 adrenergic receptor (Homo sapiens, UniProt P08588); assay: Test Example 2-B: human β1 adrenergic receptor agonist activity (method of Test Example 1-B); type: cell-based; conditions: for β1 receptor EC50: Table 2, Test Example 2-B; for Emax: read-out: β1 receptor I.A.
T2 construct: expressed in transfected cells; host or cells: CHO (Chinese Hamster Ovary) cells, pcDNA3
Protocol: as §1, with “kit. […] Measurement of Human β1 Adrenergic Receptor Agonist Activity” for “kit.”

[3] = target: T3, human β2 adrenergic receptor (Homo sapiens, UniProt P07550); assay: Test Example 3-B: human β2 adrenergic receptor agonist activity (method of Test Example 1-B); type: cell-based; conditions: for β2 receptor EC50: Table 2, Test Example 3-B; for Emax: read-out: β2 receptor I.A.
T3 construct: expressed in transfected cells; host or cells: CHO (Chinese Hamster Ovary) cells, pcDNA3
Protocol: [Worded in the source for another target; this target is reported under the same test.] as §1, with “kit. […] Measurement of Human β2 Adrenergic Receptor Agonist Activity” for “kit.”

[4] = tested on: rat under pentobarbital anesthesia; assay: Test Example 9: effect on blood pressure and heart rate of rat under pentobarbital anesthesia; type: in vivo; conditions: 3 mg/kg intravenous, male SD rat, average value ± standard error of largest change
Protocol: Effect on Blood Pressure and Heart Rate of Rat Under Pentobarbital Anesthesia
The effect of intravenous bolus administration of a test compound exerted on the blood pressure and heart rate can be investigated by measuring the blood pressure and heart rate of a rat under pentobarbital anesthesia. 50 mg/kg of pentobarbital sodium (manufactured by Tokyo Chemical Industry Co., Ltd.) is intraperitoneally administered to a male SD rat (supplied by Japan SLC, Inc.) to induce anesthesia, and then 25 mg/kg of pentobarbital sodium is subcutaneously administered to maintain anesthesia. The left femoral vein is exposed and detached, and then a polyethylene tube SP10 (connected to a three-way stopcock via a ¼ vein needle) filled with physiological saline is inserted and placed in the vein.
The inner side of the left femur is incised, and the femoral artery is exposed and detached. A polyethylene tube (SP31, connected to a three-way stopcock via a Terumo injection needle 22G) filled with heparized physiological saline is inserted in the artery, and is connected to a pressure transducer. The blood pressure is measured from the pressure transducer through a pressure amplifier (AP-641G, Nihon Koden Corp.). The heart rate is measured by the Heart Rate Counter (AT-601G, Nihon Koden Corp.), using the pulse wave of the blood pressure as the trigger. The blood pressure, mean blood pressure and heart rate are outputted to a recorder and recorded. Here, the mean blood pressure is recorded by a pressure amplifier (AP-641G) according to the formula: {diastolic blood pressure+(systolic blood pressure−diastolic blood pressure)/3 }.
Measurement of the blood pressure and heart rate is initiated, and it is checked that the respective values are almost constant. 3 mg/kg of the test compound is administered through the left femoral vein for 30 seconds. Specifically, 3 mg/mL of the test compound is rapidly administered at a dose volume of 1 mL/kg. The relative values of the values of average blood pressure and heart rate at each time point with respect to the same values obtained before the initiation of administration, are determined for each individual, and the average value±standard error of the relative values (%) obtainable when each parameter changes the most, is determined.

T2 sequence (P08588 whole entry): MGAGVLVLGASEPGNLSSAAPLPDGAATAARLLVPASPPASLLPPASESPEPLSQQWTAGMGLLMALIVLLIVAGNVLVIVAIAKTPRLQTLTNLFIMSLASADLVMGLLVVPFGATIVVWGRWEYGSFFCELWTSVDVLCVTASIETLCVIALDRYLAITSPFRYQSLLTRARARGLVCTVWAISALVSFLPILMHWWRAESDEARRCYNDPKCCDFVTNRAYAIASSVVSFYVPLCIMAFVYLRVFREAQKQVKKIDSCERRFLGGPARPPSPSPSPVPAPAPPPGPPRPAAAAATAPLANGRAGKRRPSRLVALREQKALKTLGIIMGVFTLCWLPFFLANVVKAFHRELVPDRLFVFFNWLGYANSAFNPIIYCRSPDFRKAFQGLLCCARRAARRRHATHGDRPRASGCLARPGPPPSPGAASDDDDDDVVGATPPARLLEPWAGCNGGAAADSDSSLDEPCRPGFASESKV
T1 sequence (P13945 whole entry): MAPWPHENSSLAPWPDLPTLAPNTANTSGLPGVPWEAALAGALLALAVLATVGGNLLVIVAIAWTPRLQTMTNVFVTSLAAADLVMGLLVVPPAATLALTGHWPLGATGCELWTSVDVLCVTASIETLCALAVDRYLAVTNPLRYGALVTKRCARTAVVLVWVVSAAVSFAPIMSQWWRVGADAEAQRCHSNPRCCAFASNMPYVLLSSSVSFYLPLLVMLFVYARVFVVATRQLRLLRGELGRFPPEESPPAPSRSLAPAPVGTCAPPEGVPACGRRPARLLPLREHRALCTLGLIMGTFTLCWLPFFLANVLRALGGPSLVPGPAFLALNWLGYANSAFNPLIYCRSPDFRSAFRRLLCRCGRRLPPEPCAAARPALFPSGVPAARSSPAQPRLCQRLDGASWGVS
T3 sequence (P07550 whole entry): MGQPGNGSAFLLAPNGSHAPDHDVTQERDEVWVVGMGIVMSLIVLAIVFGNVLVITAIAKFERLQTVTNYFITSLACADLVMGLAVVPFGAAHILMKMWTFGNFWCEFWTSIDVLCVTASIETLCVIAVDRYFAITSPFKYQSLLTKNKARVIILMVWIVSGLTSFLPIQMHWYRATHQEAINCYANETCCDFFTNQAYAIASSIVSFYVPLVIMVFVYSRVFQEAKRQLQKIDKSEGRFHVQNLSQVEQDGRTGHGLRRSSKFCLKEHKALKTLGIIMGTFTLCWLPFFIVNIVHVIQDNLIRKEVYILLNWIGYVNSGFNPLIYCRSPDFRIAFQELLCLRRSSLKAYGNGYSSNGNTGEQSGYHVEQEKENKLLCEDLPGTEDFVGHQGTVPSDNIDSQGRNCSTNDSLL

SMILES | Emax [1] | EC50 [1] | β1 receptor EC50 [2] | Emax [2] | β2 receptor EC50 [3] | Emax [3] | increase in MBP (%) [4]
CC(C)c1n[nH]c2cc(OCCNC[C@H](O)c3cccc(NS(C)(=O)=O)c3)ccc12 [Example 1, (R)-N-(3-(1-hydroxy-2-(2-(3-isopropylindazol-6-yloxy)ethylamino)ethyl)phenyl)methanesulfonamide] | 74% | 17 nM | a) | 12% | a) | 6.7% | 4.7 ± 2.1%
CCc1n[nH]c2cc(OCCNC[C@H](O)c3cccc(NS(C)(=O)=O)c3)ccc12 [Example 2, (R)-N-(3-(1-hydroxy-2-(2-(3-ethylindazol-6-yloxy)ethylamino)ethyl)phenyl)methanesulfonamide] | 76% | 17 nM | a) | 5.8% | a) | 4.3% | 3.1 ± 0.5%
CN(C)C(=O)CCc1n[nH]c2cc(OCCNC[C@H](O)c3cccc(NS(C)(=O)=O)c3)ccc12 [Example 5, (R)-3-(6-(2-(2-hydroxy-2-(3-(methylsulfonamido)phenyl)ethylamino)ethoxy)-indazol-3-yl)-N,N-dimethylpropanamide] |  |  |  |  | a) | 5.4% | 3.4 ± 2.2%
COCc1n[nH]c2cc(OCCNC[C@H](O)c3cccc(NS(C)(=O)=O)c3)ccc12 [Example 6, (R)-N-(3-(1-hydroxy-2-(2-(3-methoxymethylindazol-6-yloxy)ethylamino)ethyl)phenyl)methanesulfonamide] |  |  |  |  |  |  | 2.8 ± 1.1%
CS(=O)(=O)Nc1cc([C@@H](O)CNCCOc2ccc3c(C(F)(F)F)n[nH]c3c2)ccc1Cl [Example 11, (R)-N-(2-chloro-5-(1-hydroxy-2-(2-(3-(trifluoromethyl)indazol-6-yloxy)ethylamino)ethyl)phenyl)methanesulfonamide] | 65% | 15 nM | a) | 22% | a) | 5% | 1.8 ± 1.4%

Continued, in another order:

Emax [1] | EC50 [1] | β1 receptor EC50 [2] | Emax [2] | β2 receptor EC50 [3] | Emax [3] | SMILES | increase in MBP (%) [4]
 |  | a) | 1% | a) | 2% | CCCc1n[nH]c2cc(OCCNC[C@H](O)c3cccc(NS(C)(=O)=O)c3)ccc12 [Example 3, (R)-N-(3-(1-hydroxy-2-(2-(3-propylindazol-6-yloxy)ethylamino)ethyl)phenyl)methanesulfonamide] | 3.4 ± 3.7%
78% | 49 nM | a) | 6.3% | a) | 2.4% | CS(=O)(=O)Nc1cccc([C@@H](O)CNCCOc2ccc3c(C(F)(F)F)n[nH]c3c2)c1 [Example 4, (R)-N-(3-(1-hydroxy-2-(2-(3-trifluoromethylindazol-6-yloxy)ethylamino)ethyl)phenyl)methanesulfonamide] | 3.1 ± 2.1%
61% | 17 nM | a) | 15% | a) | 11% | CCc1n[nH]c2cc(OCCNC[C@H](O)c3ccc(F)c(NS(C)(=O)=O)c3)ccc12 [Example 8, (R)-N-(5-(2-(2-(3-ethylindazol-6-yloxy)ethylamino)-1-hydroxyethyl)-2-fluorophenyl)methanesulfonamide] | 0.4 ± 0.5%
58% | 29 nM | a) | 18% | a) | 8% | CCc1n[nH]c2cc(OCCNC[C@H](O)c3ccc(Cl)c(NS(C)(=O)=O)c3)ccc12 [Example 9, (R)-N-(2-chloro-5-(2-(2-(3-ethylindazol-6-yloxy)ethylamino)-1-hydroxyethyl)phenyl)methanesulfonamide] | 1.7 ± 2.7%
75% | 17 nM | a) | 7% | a) | 3% | COc1n[nH]c2cc(OCCNC[C@H](O)c3cccc(NS(=O)(=O)c4ccccc4)c3)ccc12 [Example 16, (R)-N-(3-(1-hydroxy-2-(2-(3-methoxyindazol-6-yloxy)ethylamino)ethyl)phenyl)benzenesulfonamide] | 6.6 ± 3.2%

Reference: patent publication US8008506B2, “Indazole compounds” (priority 2008, dated 2011)
